# Assays:
# [1] = biological target: T1, ALK5 kinase (Homo sapiens, UniProt P36897); assay: LanthaScreen Eu Kinase Binding Assay; conditions: Kinase Tracer 178, Eu-anti-GST Antibody, read-out: IC50 Enzyme
# T1 sequence (P36897 34-503): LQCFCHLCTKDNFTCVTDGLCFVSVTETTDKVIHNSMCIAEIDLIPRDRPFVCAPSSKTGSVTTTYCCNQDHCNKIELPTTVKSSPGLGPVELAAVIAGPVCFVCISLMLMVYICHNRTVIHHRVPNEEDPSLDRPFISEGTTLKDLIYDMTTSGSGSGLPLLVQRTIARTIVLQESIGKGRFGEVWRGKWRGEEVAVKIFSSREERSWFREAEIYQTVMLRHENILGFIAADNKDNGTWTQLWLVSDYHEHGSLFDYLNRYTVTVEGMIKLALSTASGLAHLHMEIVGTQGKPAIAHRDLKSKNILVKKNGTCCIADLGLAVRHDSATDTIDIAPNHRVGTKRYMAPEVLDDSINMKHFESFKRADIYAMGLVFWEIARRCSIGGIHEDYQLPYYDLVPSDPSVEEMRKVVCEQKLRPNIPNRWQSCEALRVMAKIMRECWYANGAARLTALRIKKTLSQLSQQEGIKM
# Outline: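 Compound (1% DMSO final) preincubated 30 min at RT with GST-tagged ALK5, then Eu-anti-GST antibody and Kinase Tracer 178 added for 60 min at RT. TR-FRET read at 340 nm excitation; 665/615 nm emission ratio falls as compound binding rises.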
# [2] = system: TGF-β signaling; assay: Assay for evaluating cellular inhibition of TGF-β signaling, 4T1 (SBE-luc2P) luciferase reporter; assay type: cell-based; conditions: Mus musculus, 4T1, 4T1 (SBE-luc2P) transient pool, 0.2% FBS, 2 h pre-treatment, TGF-β1 2 ng/mL 24 h; read-out: IC50 4T1 Cell
# Outline: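 4T1 cells transiently carrying SBE-luc2P (6×10^3/well, 0.2% FBS, ~60% confluence) or HEK293 SBE-reporter stable cells (2.5×10^4/well, 0.5% FBS, ~80% confluence) pre-treated with compound for 2 h. TGF-β1 (2 ng/mL) then added for 24 h at 37 °C; luciferase luminescence read from lysates.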
Compound,IC50 [1] [nM],IC50 [2] [nM]
"Cc1cccc(-c2nc(C(F)(F)F)sc2Oc2ccnc(Nc3cccc(S(N)(=O)=O)c3)c2)n1 [A-289, 3-((4-((4-(6-Methylpyridin-2-yl)-2-(trifluoromethyl)thiazol-5-yl)oxy)pyridin-2-yl)amino)benzenesulfonamide]",< 100,< 100
"CCc1nc(-c2cccc(C)n2)c(Oc2ccnc(Nc3cccc(C(=O)O)c3)c2)s1 [A-257, 3-((4-((2-Ethyl-4-(6-methylpyridin-2-yl)thiazol-5-yl)oxy)pyridin-2-yl)amino)benzoic acid]",< 100,< 100
"CC(C)(O)c1cc(Nc2cc(Oc3sc(C4CC4)nc3-c3ccccc3)ccn2)ccn1 [A-120, 2-(4-((4-((2-Cyclopropyl-4-phenylthiazol-5-yl)oxy)pyridin-2-yl)amino)pyridin-2-yl)propan-2-ol]",< 100,> 100
"Cc1cccc(-c2nc(N(C)C)sc2Oc2ccnc(Nc3ccc(C(N)=O)cn3)c2)n1 [A-284, 6-((4-((2-(Dimethylamino)-4-(6-methylpyridin-2-yl)thiazol-5-yl)oxy)pyridin-2-yl)amino)nicotinamide]",< 100,< 100
"CNC(=O)c1ccc(Nc2cc(Oc3sc(C4CCCC4)nc3-c3ccccc3)ccn2)nc1 [A-176, 6-((4-((2-Cyclopentyl-4-phenylthiazol-5-yl)oxy)pyridin-2-yl)amino)-N-methylnicotinamide]",> 100,> 100
"CCc1nc(-c2cccc(C)n2)c(Oc2ccnc(Nc3cc(C(N)=O)ccn3)c2)s1 [A-267, 2-((4-((2-Ethyl-4-(6-methylpyridin-2-yl)thiazol-5-yl)oxy)pyridin-2-yl)amino)isonicotinamide]",< 100,< 100
"CNC(=O)c1cccc(Nc2cc(Oc3sc(C4CC4)nc3-c3ccccc3)ccn2)n1 [A-125, 6-((4-((2-Cyclopropyl-4-phenylthiazol-5-yl)oxy)pyridin-2-yl)amino)-N-methylpicolinamide]",< 100,< 100
"CS(=O)(=O)Nc1ccc(Nc2cc(Oc3sc(C4CC4)nc3-c3ccccc3)ccn2)nc1 [A-127, N-(6-((4-((2-Cyclopropyl-4-phenylthiazol-5-yl)oxy)pyridin-2-yl)amino)pyridin-3-yl)methanesulfonamide]",< 100,< 100
"Cc1nc(-c2ccccc2)c(Oc2ccnc(Nc3cccc(S(N)(=O)=O)c3)n2)s1 [A-238, 3-((4-((2-Methyl-4-phenylthiazol-5-yl)oxy)pyrimidin-2-yl)amino)benzenesulfonamide]",< 100,< 100
"CNC(=O)c1cccc(Nc2cc(Oc3sc(C(C)C)nc3-c3ccccc3)ccn2)n1 [A-225, 6-((4-((2-Isopropyl-4-phenylthiazol-5-yl)oxy)pyridin-2-yl)amino)-N-methylpicolinamide]",< 100,< 100
"Nc1nc(-c2ccc3ccccc3c2)c(Oc2ccnc(Nc3cccc(S(N)(=O)=O)c3)c2)s1 [A-234, 3-((4-((2-Amino-4-(naphthalen-2-yl)thiazol-5-yl)oxy)pyridin-2-yl)amino)benzenesulfonamide]",> 100,> 100
"CCc1nc(-c2cccc(C)n2)c(Oc2ccnc(Nc3ccnc(C(=O)O)c3)c2)s1 [A-263, 4-((4-((2-Ethyl-4-(6-methylpyridin-2-yl)thiazol-5-yl)oxy)pyridin-2-yl)amino)picolinic acid]",< 100,> 100
"CCc1nc(-c2cccc(C)n2)c(Oc2ccnc(Nc3cncc(C(=O)NC)c3)c2)s1 [A-262, 5-((4-((2-Ethyl-4-(6-methylpyridin-2-yl)thiazol-5-yl)oxy)pyridin-2-yl)amino)-N-methylnicotinamide]",< 100,< 100
"Cc1cccc(-c2nc(C3CC3)sc2Oc2ccnc(Nc3cccc(C(N)=O)c3)c2)n1 [A-274, 3-((4-((2-Cyclopropyl-4-(6-methylpyridin-2-yl)thiazol-5-yl)oxy)pyridin-2-yl)amino)benzamide]",< 100,< 100
"CCc1nc(-c2ccccc2)c(Oc2ccnc(Nc3cccc(NS(=O)(=O)CC)c3)c2)s1 [A-188, N-(3-((4-((2-Ethyl-4-phenylthiazol-5-yl)oxy)pyridin-2-yl)amino)phenyl)ethanesulfonamide]",< 100,< 100

# Second part, the molecule after the results:
IC50 [1] [nM],IC50 [2] [nM],Compound
< 100,> 100,"CNc1nc(-c2ccccc2)c(Oc2ccnc(Nc3cccc(C(C)(C)O)c3)c2)s1 [A-50, 2-(3-((4-((2-(Methylamino)-4-phenylthiazol-5-yl)oxy)pyridin-2-yl)amino)phenyl)propan-2-ol]"
< 100,< 100,"NC(=O)c1ccc(Nc2cc(Oc3sc(C(F)(F)F)nc3-c3ccccc3)ccn2)cc1 [A-147, 4-((4-((4-Phenyl-2-(trifluoromethyl)thiazol-5-yl)oxy)pyridin-2-yl)amino)benzamide]"
< 100,> 100,"O=C(O)c1cccc(Nc2cc(Oc3sc(NC4CC4)nc3-c3ccccc3)ccn2)c1 [A-48, 3-((4-((2-(Cyclopropylamino)-4-phenylthiazol-5-yl)oxy)pyridin-2-yl)amino)benzoic acid]"
< 100,< 100,"CCc1nc(-c2ccccc2)c(Oc2ccnc(Nc3ccc(C(=O)NC)cc3)c2)s1 [A-189, 4-((4-((2-Ethyl-4-phenylthiazol-5-yl)oxy)pyridin-2-yl)amino)-N-methylbenzamide]"
< 100,< 100,"CCc1nc(-c2ccccc2)c(Oc2ccnc(Nc3cccc(S(N)(=O)=O)c3)c2)s1 [A-181, 3-((4-((2-Ethyl-4-phenylthiazol-5-yl)oxy)pyridin-2-yl)amino)benzenesulfonamide]"
< 100,< 100,"CC(C)c1nc(-c2ccccc2)c(Oc2ccnc(Nc3ccc(C(=O)O)cc3)c2)s1 [A-231, 4-((4-((2-Isopropyl-4-phenylthiazol-5-yl)oxy)pyridin-2-yl)amino)benzoic acid]"
< 100,> 100,"CN(C)c1nc(-c2ccccc2)c(Oc2ccnc(Nc3ccc(C(C)(C)O)nc3)c2)s1 [A-159, 2-(5-((4-((2-(Dimethylamino)-4-phenylthiazol-5-yl)oxy)pyridin-2-yl)amino)pyridin-2-yl)propan-2-ol]"
< 100,> 100,Cc1nc(-c2ccccc2)c(Oc2ccnc(Nc3ccc(C(N)=O)cc3)c2)s1 [A-63]
< 100,> 100,"CN(C)C(=O)c1cccc(Nc2cc(Oc3sc(N)nc3-c3ccccc3)ccn2)c1 [A-10, 3-((4-((2-Amino-4-phenylthiazol-5-yl)oxy)pyridin-2-yl)amino)-N,N-dimethylbenzamide]"
< 100,< 100,"Cc1nc(-c2ccccc2)c(Oc2ccnc(Nc3cccc(NS(C)(=O)=O)c3)c2)s1 [A-71, N-(3-((4-((2-Methyl-4-phenylthiazol-5-yl)oxy)pyridin-2-yl)amino)phenyl)methanesulfonamide]"
> 100,> 100,"O=C(O)c1ccc(Nc2cc(Oc3sc(C4CCCCC4)nc3-c3ccccc3)ccn2)cc1 [A-179, 4-((4-((2-Cyclohexyl-4-phenylthiazol-5-yl)oxy)pyridin-2-yl)amino)benzoic acid]"
< 100,< 100,"Cc1nc(-c2ccccc2)c(Oc2ccnc(Nc3cccc(C(C)(C)C(=O)O)c3)c2)s1 [A-66, 2-Methyl-2-(3-((4-((2-methyl-4-phenylthiazol-5-yl)oxy)pyridin-2-yl)amino)phenyl)propanoic acid]"
< 100,< 100,"Nc1nc(-c2ccccc2)c(Oc2ccnc(Nc3cccc(S(N)(=O)=O)c3)c2)s1 [A-1, 3-((4-((2-Amino-4-phenylthiazol-5-yl)oxy)pyridin-2-yl)amino)benzenesulfonamide]"
< 100,< 100,"CNC(=O)c1ccc(Nc2cc(Oc3sc(C(C)C)nc3-c3ccccc3)ccn2)nc1 [A-228, 6-((4-((2-Isopropyl-4-phenylthiazol-5-yl)oxy)pyridin-2-yl)amino)-N-methylnicotinamide]"
< 100,> 100,"COC(=O)c1cccc(Nc2cc(Oc3sc(Br)nc3-c3ccccc3)ccn2)c1 [A-170, Methyl 3-((4-((2-bromo-4-phenylthiazol-5-yl)oxy)pyridin-2-yl)amino)benzoate]"
< 100,> 100,"NS(=O)(=O)c1ccc(Nc2cc(Oc3sc(C4CC4)nc3-c3ccccc3)ccn2)cc1 [A-118, 4-((4-((2-Cyclopropyl-4-phenylthiazol-5-yl)oxy)pyridin-2-yl)amino)benzenesulfonamide]"
> 100,> 100,"NC(=O)c1ccc(Nc2cc(Oc3sc(C4CCCCC4)nc3-c3ccccc3)ccn2)nc1 [A-177, 6-((4-((2-Cyclohexyl-4-phenylthiazol-5-yl)oxy)pyridin-2-yl)amino)nicotinamide]"
